Reference: the supplement of paper PMC6045584
± gives the standard deviation of the averaged measurements.

Experiments:
[1] = compound: O=C(O)C1(C(=O)O)CCC1.[NH2-].[NH2-].[Pt+2] [CARBOPLATIN]; assay: area under dose-response curve of surviving fraction (unscaled, Aref=0) (surviving fraction x log10(nM)); higher = more resistant; conditions: exposure time: 5 days; dose range 0.5-1000 nM
Procedure, shortened: (§1)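 Each tumour cell line was screened three times in 384-well plates, receiving eight inhibitor concentrations from 0.5 to 1000 nM for five days. CellTiter-Glo luminescence gave viability, normalised to DMSO-only wells. Using the drc R package, surviving fractions were fitted with 3-parameter logistic dose-response curves, and the unscaled activity area over log10 dose (Aref = 0) was taken as the area under the curve.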

[2] = compound: CC(=O)c1c(C)c2cnc(Nc3ccc(N4CCNCC4)cn3)nc2n(C2CCCC2)c1=O; assay: as above; conditions: exposure time: 5 days; dose range 0.5-1000 nM
Procedure, shortened: as §1

[3] = compound: CC(=O)NCC(=O)N1[C@@H]2CC[C@H]1c1ccc(Nc3ncc(C(F)(F)F)c(NC4CCC4)n3)cc12; assay: as above; conditions: exposure time: 5 days; dose range 0.5-1000 nM
Procedure, shortened: as §1

[4] = compound: COCC[n+]1c2c(n(Cc3cnccn3)c1C)C(=O)c1ccccc1C2=O [YM155]; assay: as above; conditions: exposure time: 5 days; dose range 0.5-1000 nM
Procedure, shortened: as §1

[5] = compound: CC(=O)O[C@H]1C(=O)[C@@]2(C)[C@H]([C@H](OC(=O)c3ccccc3)[C@]3(O)C[C@H](OC(=O)[C@H](O)[C@@H](NC(=O)c4ccccc4)c4ccccc4)C(C)=C1C3(C)C)[C@]1(OC(C)=O)CO[C@@H]1C[C@@H]2O [PACLITAXEL]; assay: as above; conditions: exposure time: 5 days; dose range 0.5-1000 nM
Procedure, shortened: as §1

[6] = compound: Cc1ccc(-c2cc(C(F)(F)F)nn2-c2ccc(S(N)(=O)=O)cc2)cc1 [CELECOXIB]; assay: as above; conditions: exposure time: 5 days; dose range 0.5-1000 nM
Procedure, shortened: as §1

[7] = compound: CC[C@@]1(O)C(=O)OCc2c1cc1n(c2=O)Cc2cc3ccccc3nc2-1 [CAMPTOTHECIN]; assay: as above; conditions: exposure time: 5 days; dose range 0.5-1000 nM
Procedure, shortened: as §1

[8] = compound: T1, C[C@]1(O)C[C@@H](c2nc(-c3ccc4ccc(-c5ccccc5)nc4c3)c3c(N)nccn32)C1 [OSI-906]; assay: surviving fraction relative to DMSO-only wells; higher = less growth inhibition; conditions: exposure time: 5 days
Procedure, shortened: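 After seeding at 250–500 cells per well in 384-well plates and a 24-hour wait, log-phase tumour cell lines were exposed without interruption for five days to inhibitors at 0.5, 1, 5, 10, 50, 100, 500 and 1000 nM. CellTiter-Glo luminescence was recorded after 10 minutes at room temperature. Viability is reported as surviving fraction, the luminescence normalised to the median of DMSO-only wells.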

[9] = compound: T1, OSI-906; assay: area under dose-response curve of surviving fraction (unscaled, Aref=0) (surviving fraction x log10(nM)); higher = more resistant; conditions: exposure time: 5 days; dose range 0.5-1000 nM
Procedure, shortened: as §1

[10] = compound: COc1cc2ncnc(Nc3ccc(F)c(Cl)c3)c2cc1OCCCN1CCOCC1 [GEFITINIB]; assay: as above; conditions: exposure time: 5 days; dose range 0.5-1000 nM
Procedure, shortened: as §1

Test System | area under dose-response curve [1] | area under dose-response curve [2] | area under dose-response curve [3] | area under dose-response curve [4] | area under dose-response curve [5] | area under dose-response curve [6] | area under dose-response curve [7] | surviving fraction ([8]; 0.5 nM) | surviving fraction ([8]; 1 nM) | surviving fraction ([8]; 5 nM) | surviving fraction ([8]; 10 nM) | surviving fraction ([8]; 50 nM) | surviving fraction ([8]; 100 nM) | surviving fraction ([8]; 500 nM) | surviving fraction ([8]; 1000 nM) | area under dose-response curve [9] | area under dose-response curve [10]
MDAMB453 BREAST | 3.54 | 3.52 | 2.73 | 1.04 | 1.23 | 3.64 | 2.11 | 1.03 ± 0.03 | 1.03 ± 0.016 | 1.077 ± 0.0087 | 1.06 ± 0.021 | 1.06 ± 0.051 | 1.04 ± 0.014 | 1.02 ± 0.042 | 0.98 ± 0.035 |  | 
MFM223 BREAST | 3.74 |  | 2.67 | 0.996 | 0.825 |  | 1.92 | 0.716 ± 0.049 | 0.791 ± 0.1 | 0.768 ± 0.092 | 0.811 ± 0.15 | 1.05 ± 0.095 | 1.02 ± 0.088 | 1.09 ± 0.013 | 1.04 ± 0.017 | 2.94 | 3.88
MG63 BONE |  | 3.25 | 2.52 | 1.43 | 0.809 | 3.57 | 0.972 | 0.9333 ± 0.0045 | 0.919 ± 0.025 | 0.989 ± 0.033 | 0.963 ± 0.012 | 0.971 ± 0.03 | 0.943 ± 0.018 | 0.896 ± 0.017 | 0.9223 ± 0.0068 | 3.11 | 3.47
RDES SOFT TISSUE | 3.72 |  | 2.44 | 1.4 | 1.03 | 3.85 | 0.518 | 0.836 ± 0.081 | 0.818 ± 0.12 | 0.77 ± 0.14 | 0.733 ± 0.18 | 1.1 ± 0.019 | 1.05 ± 0.086 | 0.84 ± 0.015 | 0.555 ± 0.032 | 2.76 | 3.69
S68 BREAST | 3.8 |  | 2.38 | 1.4 | 0.758 | 3.75 | 1.05 | 0.611 ± 0.24 | 0.727 ± 0.17 | 0.797 ± 0.27 | 0.721 ± 0.37 | 1.19 ± 0.28 | 1.06 ± 0.21 | 0.828 ± 0.19 | 0.756 ± 0.05 | 2.83 | 2.99
SCC003 HEADNECK |  | 3.56 | 2.69 | 1.38 | 1.13 | 3.59 | 1.77 | 0.796 ± 0.018 | 0.865 ± 0.028 | 0.88 ± 0.099 | 0.87 ± 0.011 | 1.02 ± 0.022 | 1.04 ± 0.013 | 0.976 ± 0.04 | 0.845 ± 0.04 | 3.08 | 2.89
SG27 HEADNECK | 3.6 | 3.52 | 3.14 | 1.43 | 3.02 | 3.88 | 2.66 | 1.1 ± 0.12 | 1.08 ± 0.064 | 0.916 ± 0.071 | 0.966 ± 0.059 | 1 ± 0.054 | 0.946 ± 0.044 | 0.807 ± 0.086 | 0.617 ± 0.069 |  | 3.65
SG28 HEADNECK |  | 3.43 | 2.96 |  | 2.04 |  |  | 0.829 ± 0.16 | 0.78 ± 0.098 | 0.769 ± 0.16 | 0.792 ± 0.02 | 0.88 ± 0.06 | 0.867 ± 0.089 | 0.692 ± 0.021 | 0.547 ± 0.034 |  | 
SG31 HEADNECK | 3.73 | 3.36 | 2.85 | 1.96 | 1.44 | 4.19 | 1.58 | 0.867 ± 0.15 | 0.994 ± 0.057 | 0.84 ± 0.045 | 0.985 ± 0.056 | 1 ± 0.22 | 0.833 ± 0.1 | 0.615 ± 0.042 | 0.493 ± 0.042 | 2.94 | 
SG32 HEADNECK | 3.86 |  | 2.57 | 0.928 | 1.08 | 4.18 | 0.888 | 0.714 ± 0.15 | 0.689 ± 0.0095 | 0.767 ± 0.13 | 0.632 ± 0.057 | 0.845 ± 0.021 | 0.793 ± 0.071 | 0.596 ± 0.084 | 0.498 ± 0.048 | 2.28 | 4.01
SIHA CERVIX | 3.82 |  | 2.88 | 1.48 | 0.974 | 3.52 | 1.73 | 0.931 ± 0.067 | 0.888 ± 0.012 | 0.992 ± 0.11 | 0.886 ± 0.056 | 1.04 ± 0.057 | 1.01 ± 0.065 | 0.935 ± 0.046 | 0.966 ± 0.026 | 3.17 | 3.44
SNU475 LIVER | 3.44 | 3.4 | 2.85 | 1.91 | 0.893 | 3.49 | 1.18 | 0.89 ± 0.023 | 0.887 ± 0.037 | 0.887 ± 0.012 | 0.869 ± 0.054 | 0.942 ± 0.037 | 0.921 ± 0.013 | 0.944 ± 0.011 | 0.963 ± 0.015 | 3.01 | 
SUM149 BREAST | 3.13 | 3.23 | 2.36 | 1.31 | 0.407 | 3.68 |  | 0.923 ± 0.08 | 0.951 ± 0.079 | 0.839 ± 0.035 | 0.79 ± 0.035 | 0.827 ± 0.2 | 0.782 ± 0.082 | 0.581 ± 0.078 | 0.553 ± 0.034 | 2.61 | 2.81
SUM159 BREAST |  | 3.03 | 2.79 | 1.25 | 1.29 | 3.58 | 1.29 | 0.9647 ± 0.0076 | 0.948 ± 0.021 | 0.964 ± 0.021 | 0.944 ± 0.036 | 0.977 ± 0.013 | 0.95 ± 0.021 | 0.953 ± 0.012 | 0.927 ± 0.016 | 3.15 | 3.52
U2OS BONE | 3.52 | 3.41 | 2.43 | 1.16 | 1.15 | 3.42 | 2.05 | 0.979 ± 0.038 | 0.949 ± 0.031 | 0.958 ± 0.013 | 0.939 ± 0.021 | 0.967 ± 0.038 | 0.914 ± 0.026 | 0.872 ± 0.026 | 0.863 ± 0.026 | 3.08 | 
YAMATO SYNOVIAL | 4.26 | 3.92 | 2.87 | 1.2 | 1.69 | 4.62 | 0.991 | 0.866 ± 0.13 | 0.936 ± 0.04 | 0.995 ± 0.069 | 0.986 ± 0.082 | 1.36 ± 0.22 | 1.46 ± 0.13 | 1.17 ± 0.21 | 1.12 ± 0.077 |  | 4.25
ZR751 BREAST | 3.96 | 3.47 | 2.96 | 1.2 | 1.6 | 3.57 | 1.47 | 0.893 ± 0.058 | 0.857 ± 0.08 | 0.879 ± 0.1 | 0.847 ± 0.069 | 0.819 ± 0.091 | 0.795 ± 0.076 | 0.634 ± 0.08 | 0.462 ± 0.022 | 2.62 | 
